The values below come from ChEMBL document CHEMBL1128093, “Discovery and optimization of indole pyrrolothiazole paf antagonists” (Bioorg Med Chem Lett, 1995).

What all share (format): functional
For assay [1], the system named is Rattus norvegicus. In words: In vivo activity by inhibition of PAF-induced cutaneous vascular permeability in rats after intravenous administration.
The subject of assay [2] is Rattus norvegicus. In words: In vivo activity by inhibition of PAF-induced cutaneous vascular permeability in rats after peroral administration. The settings on record: po.
In assay [3] the test system is Rattus norvegicus. The experiment in a line: In vivo activity by inhibition of PAF-induced cutaneous vascular permeability in rats after intravenous administration of 1 mg/kg dose.
Assay [4] has as its system Rattus norvegicus. The experiment in a line: xIn vivo activity by inhibition of PAF-induced cutaneous vascular permeability in rats after peroral administration. The following applies: po.
The subject of assay [5] is Rattus norvegicus. The experiment in a line: In vivo activity by inhibition of PAF-induced cutaneous vascular permeability in rats after peroral administration of 30 mg/kg dose. The settings on record: route oral.
Assay [6] concerns Rattus norvegicus. In words: In vivo activity by inhibition of PAF-induced cutaneous vascular permeability in rats after peroral administration of 10 mg/kg dose. The following applies: route oral.

Consider `CCNC(=O)n1cc(C(=O)c2ccn3c2CSC3c2cccnc2)c2ccc(-c3ccc(F)cc3)cc21` (stereo not given), for which, in the assay with Rattus norvegicus [1], the ED50 was found to be 0.18 mg/kg.
In the case of `NC(=O)n1cc(C(=O)c2ccn3c2CSC3c2cccnc2)c2ccc(-c3ccc(F)cc3)cc21` (stereo not given), the ED50 with Rattus norvegicus [1] was found to be 0.01 mg/kg; with Rattus norvegicus [2] it was 0.06 mg/kg.
The compound `CN(C)C(=O)n1cc(C(=O)c2ccn3c2CSC3c2cccnc2)c2ccc(Cl)cc21` (stereo not given) registered an ED50 in the assay on Rattus norvegicus [2] of 1.4 mg/kg. For the same compound, the inhibition in vivo at 1 mg/kg with Rattus norvegicus [3] came to 42%.
In turn, `CN(C)S(=O)(=O)n1cc(C(=O)c2ccn3c2CSC3c2cccnc2)c2ccc(-c3ccc(F)cc3)cc21` (stereo not given) returned an ED50 with Rattus norvegicus [4] of 5.5 mg/kg.
In turn, `CN(C)C(=O)n1cc(C(=O)c2ccn3c2CSC3c2cccnc2)c2ccc(Cc3ccccc3)cc21` (stereo not given) came in with an ED50 in the assay on Rattus norvegicus [1] of 0.09 mg/kg.
In the case of `CN(C)C(=O)n1cc(C(=O)c2ccn3c2CSC3c2cccnc2)c2ccccc21` (stereo not given), the inhibition in vivo at 30 mg/kg in the assay with Rattus norvegicus [5] amounted to 34%.
As for `CN(C)C(=O)n1cc(C(=O)c2ccn3c2CSC3c2cccnc2)c2ccc(-c3cccnc3)cc21` (stereo not given), the inhibition in vivo at 10 mg/kg in the assay on Rattus norvegicus [6] was 58%.
In the assay on Rattus norvegicus [2], `NCCn1cc(C(=O)c2ccn3c2CSC3c2cccnc2)c2ccc(-c3ccc(F)cc3)cc21` (stereo not given) came in with an ED50 of 1.3 mg/kg.
Take `CN(C)C(=O)n1cc(C(=O)c2ccn3c2CSC3c2cccnc2)c2ccc(-c3ccccc3)cc21` (stereo not given): the ED50 in the assay with Rattus norvegicus [1] was determined as 0.03 mg/kg; in the assay on Rattus norvegicus [2], 0.06 mg/kg.
As to `NNC(=O)n1cc(C(=O)c2ccn3c2CSC3c2cccnc2)c2ccc(-c3ccc(F)cc3)cc21` (stereo not given), the ED50 in the assay on Rattus norvegicus [1] came out at 0.04 mg/kg; in the assay with Rattus norvegicus [2], 0.57 mg/kg.
On the same counts, the results for `CN(C)C(=O)n1cc(C(=O)c2ccn3c2CSC3c2cccnc2)c2ccc(-c3ccc(F)cc3)cc21` (stereo not given) are 0.006 mg/kg and 0.06 mg/kg.
In the assay on Rattus norvegicus [2], `O=C(c1ccn2c1CSC2c1cccnc1)c1c[nH]c2cc(-c3ccc(F)cc3)ccc12` (stereo not given) yielded an ED50 of 6.4 mg/kg.
Regarding `O=C(c1ccn2c1CSC2c1cccnc1)c1cn(CCO)c2cc(-c3ccc(F)cc3)ccc12` (stereo not given), the ED50 worked out at 0.1 mg/kg in the assay with Rattus norvegicus [1] and 0.76 mg/kg in the assay on Rattus norvegicus [2].
Turning to `CN(C)C(=O)n1cc(C(=O)c2ccn3c2CSC3c2cccnc2)c2ccc(Sc3ccc(F)cc3)cc21` (stereo not given), the ED50 in the assay on Rattus norvegicus [1] worked out at 0.27 mg/kg.
In turn, `CNC(=O)n1cc(C(=O)c2ccn3c2CSC3c2cccnc2)c2ccc(-c3ccc(F)cc3)cc21` (stereo not given) came in with an ED50 in the assay on Rattus norvegicus [2] of 0.12 mg/kg.
Turning to `CN(C)C(=O)Cn1cc(C(=O)c2ccn3c2CSC3c2cccnc2)c2ccc(-c3ccc(F)cc3)cc21` (stereo not given), the ED50 with Rattus norvegicus [1] stood at 0.009 mg/kg; in the assay with Rattus norvegicus [2] it was 0.12 mg/kg.
`CN(C)C(=O)n1cc(C(=O)c2ccn3c2CSC3c2cccnc2)c2ccc(OCc3ccccc3)cc21` (stereo not given): the 50% effective dose (ED50) in the assay with Rattus norvegicus [2] amounted to 3.3 mg/kg.
In turn, `CN(C)C(=O)n1cc(C(=O)c2ccn3c2CSC3c2cccnc2)c2ccc(Oc3ccc(F)cc3)cc21` (stereo not given) registered an ED50 with Rattus norvegicus [1] of 0.03 mg/kg.
On the same count and under the same terms, in the case of `Cn1cc(C(=O)c2ccn3c2CSC3c2cccnc2)c2ccc(-c3ccc(F)cc3)cc21` (stereo not given) it was 0.09 mg/kg.
With `CN(C)C(=O)n1cc(C(=O)c2ccn3c2CSC3c2cccnc2)c2ccc(Br)cc21` (stereo not given), it took a dose of 1.5 mg/kg to reach the 50% effect level with Rattus norvegicus [2] (ED50). Besides, the inhibition in vivo at 1 mg/kg in the assay on Rattus norvegicus [3] was 41%.
For `O=C(O)CCn1cc(C(=O)c2ccn3c2CSC3c2cccnc2)c2ccc(-c3ccc(F)cc3)cc21` (stereo not given), the ED50 worked out at 0.1 mg/kg in the assay with Rattus norvegicus [1] and 5.1 mg/kg with Rattus norvegicus [2].

Broadly, the ED50 is the dose that gives a 50% effect, or the effect in half of the subjects. Read a low ED50 as greater potency. Broadly, the inhibition in vivo is the relative decrease from the control value, in per cent. A low value points to little suppression.
